Measurements as given in ChEMBL document CHEMBL4342418, “1,2,3-Triazole-containing hybrids as potential anticancer agents: Current developments, action mechanisms and structure-activity relationships” (Eur J Med Chem, 2019).
In brackets after ≈: the same amount, converted by molar mass.

Columns and labels:
MCF7 [1] = assay: cells; format: functional, cell-based; settings: Homo sapiens
Description: Antiproliferative activity against human MCF7 cells by MTT assay

HepG2 [2] = assay: Antiproliferative activity against human HepG2 cells by MTT assay; format: functional, cell-based
A549 [3] = assay: cells; format: functional, cell-based; settings: Homo sapiens
Description: Antiproliferative activity against human A549 cells by MTT assay

HeLa [4] = assay: Antiproliferative activity against human HeLa cells by MTT assay; format: functional, cell-based
DU-145 [5] = assay: Antiproliferative activity against human DU145 cells by MTT assay; format: functional, cell-based
NIH3T3 = assay: Antiproliferative activity against mouse NIH/3T3 cells by MTT assay; format: functional, cell-based
HeLa [6] = assay: Potency index, ratio of podophyllotoxin IC50 to test compound IC50 for antiproliferative activity against human HeLa cells; format: functional
MCF7 [7] = assay: Potency index, ratio of podophyllotoxin IC50 to test compound IC50 for antiproliferative activity against human MCF7 cells; format: functional
DU-145 [8] = assay: Potency index, ratio of podophyllotoxin IC50 to test compound IC50 for antiproliferative activity against human DU145 cells; format: functional
A549 [9] = assay: Potency index, ratio of podophyllotoxin IC50 to test compound IC50 for antiproliferative activity against human A549 cells; format: functional
HepG2 [10] = assay: Potency index, ratio of podophyllotoxin IC50 to test compound IC50 for antiproliferative activity against human HepG2 cells; format: functional
HCT-116 = assay: Antiproliferative activity against human HCT116 cells by MTT assay; format: functional, cell-based
PC-3 = assay: Antiproliferative activity against human PC3 cells by MTT assay; format: functional, cell-based
K562 = assay: Antiproliferative activity against human K562 cells by MTT assay; format: functional, cell-based
U-251 = assay: Antiproliferative activity against human U251 cells by MTT assay; format: functional, cell-based
SK-BR-3 = assay: Antiproliferative activity against human SKBR3 cells by MTT assay; format: functional, cell-based
[11] = Antiproliferative activity against human SMCC7721 cells by MTT assay; format: functional, cell-based
LNCaP = assay: Antiproliferative activity against human LNCAP cells by MTT assay; format: functional, cell-based
K562/Adr = assay: Antiproliferative activity against human K562/ADR cells by MTT assay; format: functional, cell-based
HFF = assay: Antiproliferative activity against human HFF cells by MTT assay; format: cell-based
L02 = assay: Antiproliferative activity against human HL7702 cells by MTT assay; format: cell-based
MCF7 [12] = assay: Antiproliferative activity against human MCF7 cells assessed as reduction in cell viability after 72 hrs by MTT assay; format: functional, cell-based; settings: MCF7, 72 h
MDA-MB-231 [13] = assay: Antiproliferative activity against human MDA-MB-231 cells assessed as reduction in cell viability after 72 hrs by MTT assay; format: functional, cell-based; settings: MDA-MB-231, 72 h, read-out: IC50
MDA-MB-468 [14] = assay: Antiproliferative activity against human MDA-MB-468 cells assessed as reduction in cell viability after 72 hrs by MTT assay; format: functional, cell-based; settings: MDA-MB-468, 72 h
MDA-MB-231 [15] = assay: Potency index, ratio of 5-fluorouracil IC50 to test compound IC50 for antiproliferative activity against human MDA-MB-231 cells; format: functional
MDA-MB-468 [16] = assay: Potency index, ratio of 5-fluorouracil IC50 to test compound IC50 for antiproliferative activity against human MDA-MB-468 cells; format: functional
MCF7 [17] = assay: Potency index, ratio of 5-fluorouracil IC50 to test compound IC50 for antiproliferative activity against human MCF7 cells; format: functional
MGC-803 [18] = assay: Antiproliferative activity against human MGC803 cells assessed as reduction in cell viability after 72 hrs by MTT assay; format: functional, cell-based; settings: MGC-803, 72 h
BGC-823 = assay: Antiproliferative activity against human BGC823 cells assessed as reduction in cell viability after 72 hrs by MTT assay; format: functional, cell-based; settings: BGC-823, 72 h
SGC-7901 = assay: Antiproliferative activity against human SGC7901 cells assessed as reduction in cell viability after 72 hrs by MTT assay; format: functional, cell-based; settings: SGC-7901, 72 h
Tubulin = assay: Inhibition of tubulin polymerization (unknown origin); format: protein-complex assay, Homo sapiens
MGC-803 [19] = assay: Antitumour activity against human MGC803 cells xenografted in BALB/c nude mice assessed as inhibition of tumour growth at 60 mg/kg, ig administered for 21 days relative to control; format: functional; settings: Mus musculus, MGC-803, po, 504 h; read-out: TGI
A549 [20] = assay: Antiproliferative activity against human A549 cells assessed as reduction in cell viability after 48 hrs by MTT assay; format: functional, cell-based; settings: A549, 48 h
HL-60 = assay: Antiproliferative activity against human HL60 cells assessed as reduction in cell viability after 48 hrs by MTT assay; format: functional, cell-based; settings: HL-60, 48 h
SW480 [21] = assay: Antiproliferative activity against human SW480 cells assessed as reduction in cell viability after 48 hrs by MTT assay; format: functional, cell-based; settings: SW480, 48 h
[22] = Antiproliferative activity against human SMCC7721 cells assessed as reduction in cell viability after 48 hrs by MTT assay; format: functional, cell-based
A549 [23] = assay: Potency index, ratio of etoposide IC50 to test compound IC50 for antiproliferative activity against human A549 cells; format: functional
MCF7 [24] = assay: Potency index, ratio of etoposide IC50 to test compound IC50 for antiproliferative activity against human MCF7 cells; format: functional
SW480 [25] = assay: Potency index, ratio of etoposide IC50 to test compound IC50 for antiproliferative activity against human SW480 cells; format: functional
[26] = Potency index, ratio of etoposide IC50 to test compound IC50 for antiproliferative activity against human […] cells; format: functional
A549 [27] = assay: Potency index, ratio of cisplatin IC50 to test compound IC50 for antiproliferative activity against human A549 cells; format: functional
MCF7 [28] = assay: Potency index, ratio of cisplatin IC50 to test compound IC50 for antiproliferative activity against human MCF7 cells; format: functional
SW480 [29] = assay: Potency index, ratio of cisplatin IC50 to test compound IC50 for antiproliferative activity against human SW480 cells; format: functional
[30] = Potency index, ratio of cisplatin IC50 to test compound IC50 for antiproliferative activity against human […] cells; format: functional
DU-145 [31] = assay: Antiproliferative activity against human DU145 cells by SRB assay; format: functional, cell-based
HeLa [32] = assay: Antiproliferative activity against human HeLa cells by SRB assay; format: functional, cell-based
HepG2 [33] = assay: Antiproliferative activity against human HepG2 cells by SRB assay; format: functional, cell-based
A549 [34] = assay: Antiproliferative activity against human A549 cells by SRB assay; format: functional, cell-based
SK-OV-3 = assay: Antiproliferative activity against human SKOV3 cells by SRB assay; format: functional, cell-based
MCF7 [35] = assay: Antiproliferative activity against human MCF7 cells by SRB assay; format: functional, cell-based
MCF7-DOX = assay: Antiproliferative activity against human MCF7/Dox cells by SRB assay; format: functional, cell-based
HepG2 [36] = assay: Potency index, ratio of etoposide IC50 to test compound IC50 for antiproliferative activity against human HepG2 cells by SRB assay; format: functional; settings: pooled result: one value given for 7 cell lines, strains, targets or settings

SMILES: COc1cc([C@@H]2c3cc4c(cc3[C@H](NC(=O)c3cn(-c5ccc(Cl)cc5)nn3)[C@H]3COC(=O)[C@H]23)OCO4)cc(OC)c1OC
- IC50 (MCF7 [1]): 0.7 to 1.21 µM
- IC50 (HepG2 [2]): 0.7 to 1.21 µM
- IC50 (A549 [3]): 0.7 to 1.21 µM
- IC50 (HeLa [4]): 0.7 to 1.21 µM
- IC50 (DU-145 [5]): 0.7 to 1.21 µM
- IC50 (NIH3T3): 0.7 to 1.21 µM
- Ratio IC50 (HeLa [6]): 3.8 - 8.5
- Ratio IC50 (MCF7 [7]): 3.8 - 8.5
- Ratio IC50 (DU-145 [8]): 3.8 - 8.5
- Ratio IC50 (A549 [9]): 3.8 - 8.5
- Ratio IC50 (HepG2 [10]): 3.8 - 8.5

SMILES: COC(=O)c1ccc(-c2cn(CC(=O)O[C@H]3c4cc5c(cc4[C@@H](c4cc(OC)c(OC)c(OC)c4)[C@H]4C(=O)OC[C@@H]43)OCO5)nn2)cc1
- IC50 (MCF7 [1]): 21.1 to 124 µM
- IC50 (HCT-116): 19.6 to 55.3 µM
- IC50 (A549 [3]): 21.1 to 124 µM
- IC50 (PC-3): 21.1 to 124 µM
- IC50 (K562): 19.6 to 55.3 µM
- IC50 (U-251): 19.6 to 55.3 µM
- IC50 (SK-BR-3): 19.6 to 55.3 µM
- IC50 [11]: 19.6 to 55.3 µM
- IC50 (LNCaP): 19.6 to 55.3 µM
- IC50 (K562/Adr): 19.6 to 55.3 µM
- IC50 (HFF): 195 µM
- IC50 (L02): 565 µM

SMILES: COc1cc(Cn2cc(CN3c4ccccc4Sc4ccccc43)nn2)cc(OC)c1OC
- IC50 (MCF7 [12]): 0.8 to 1.7 µM
- IC50 (MDA-MB-231 [13]): 0.8 to 1.7 µM
- IC50 (MDA-MB-468 [14]): 0.8 to 1.7 µM
- Ratio IC50 (MDA-MB-231 [15]): 6.2 - 15.8
- Ratio IC50 (MDA-MB-468 [16]): 6.2 - 15.8
- Ratio IC50 (MCF7 [17]): 6.2 - 15.8

SMILES: Cc1cc(=O)oc2cc(OCc3cn(-c4ccc(S(N)(=O)=O)cc4)nn3)ccc12
- IC50 (MGC-803 [18]): 0.4 to 3.5 µg/mL (≈ 0.97 to 8.49 µM)
- IC50 (BGC-823): 0.4 to 3.5 µg/mL (≈ 0.97 to 8.49 µM)
- IC50 (SGC-7901): 0.4 to 3.5 µg/mL (≈ 0.97 to 8.49 µM)
- IC50 (Tubulin): 2.4 µM
- inhibition in vivo at 60 mg/kg (MGC-803 [19]): 64.2%

SMILES: CCCC(=O)OC[C@H]1O[C@@H](OC(COCc2cn([C@H]3c4cc5c(cc4[C@@H](c4cc(OC)c(OC)c(OC)c4)[C@H]4C(=O)OC[C@@H]43)OCO5)nn2)COCc2cn([C@H]3c4cc5c(cc4[C@@H](c4cc(OC)c(OC)c(OC)c4)[C@H]4C(=O)OC[C@@H]43)OCO5)nn2)[C@H](OC(=O)CCC)[C@@H](OC(=O)CCC)[C@@H]1OC(=O)CCC (some centres undefined)
- IC50 (A549 [20]): 0.43 to 3.5 µM
- IC50 (HL-60): 0.43 to 3.5 µM
- IC50 (SW480 [21]): 0.43 to 3.5 µM
- IC50 [22]: 0.43 to 3.5 µM
- Ratio IC50 (A549 [23]): 2.8 - 21.3
- Ratio IC50 (MCF7 [24]): 2.8 - 21.3
- Ratio IC50 (SW480 [25]): 2.8 - 21.3
- Ratio IC50 [26]: 2.8 - 21.3
- Ratio IC50 (A549 [27]): 2.8 - 21.3
- Ratio IC50 (MCF7 [28]): 2.8 - 21.3
- Ratio IC50 (SW480 [29]): 2.8 - 21.3
- Ratio IC50 [30]: 2.8 - 21.3

SMILES: CO/N=C1\C(=O)N(CCOCCn2cc(CN3C(=O)/C(=N\OC)c4ccccc43)nn2)c2ccccc21
- IC50 (DU-145 [31]): 0.18 to 9.92 µM
- IC50 (HeLa [32]): 0.18 to 9.92 µM
- IC50 (HepG2 [33]): 0.18 to 9.92 µM
- IC50 (A549 [34]): 0.18 to 9.92 µM
- IC50 (SK-OV-3): 0.18 to 9.92 µM
- IC50 (MCF7 [35]): 0.18 to 9.92 µM
- IC50 (MCF7-DOX): 0.18 to 9.92 µM
- Ratio IC50 (HepG2 [36]): 1.55
